Assay results from patent US7166738B2, “Non-nucleoside reverse transcriptase inhibitors” (Roche Palo Alto LLC, priority 2004, dated 2007).

CCc1ccc(CC(=O)Nc2ccc(S(N)(=O)=O)cc2C)cc1Oc1cc(Cl)cc(Br)c1Cl [Compound I-36, 2-[3-(3-Bromo-2,5-dichloro-phenoxy)-4-ethyl-phenyl]-N-(2-methyl-4-sulfamoyl-phenyl)-acetamide]
melting point: 213.2 to 219.6 °C

CCc1ccc(CC(=O)Nc2ccccc2Cl)cc1Oc1cc(Cl)cc(Br)c1Cl [Compound I-37, 2-[3-(3-Bromo-2,5-dichloro-phenoxy)-4-ethyl-phenyl]-N-(2-chloro-phenyl)-acetamide]
melting point: 146.5 to 147.6 °C

CCc1ccc(CC(=O)Nc2ccccc2Cl)cc1Oc1cc(Br)cc(Br)c1Cl [Compound I-38, N-(2-Chloro-phenyl)-2-[3-(3,5-dibromo-2-chloro-phenoxy)-4-ethyl-phenyl]-acetamide]
melting point: 155.5 to 155.8 °C

CCc1ccc(CC(=O)Nc2ccc(S(N)(=O)=O)cc2)cc1Oc1cc(Br)cc(F)c1Cl [Compound I-39, 2-[3-(5-Bromo-2-chloro-3-fluoro-phenoxy)-4-ethyl-phenyl]-N-(4-sulfamoyl-phenyl)-acetamide]
melting point: 209.9 to 211.1 °C

CCc1ccc(CC(=O)Nc2ccc(S(N)(=O)=O)cc2C)cc1Oc1cc(Br)cc(F)c1Cl [Compound I-40, 2-[3-(5-Bromo-2-chloro-3-fluoro-phenoxy)-4-ethyl-phenyl]-N-(2-methyl-4-sulfamoyl-phenyl)-acetamide]
melting point: 207 to 209.9 °C

CCc1ccc(CC(=O)Nc2ccccc2Cl)cc1Oc1cc(Br)cc(F)c1Cl [Compound I-41, 2-[3-(5-Bromo-2-chloro-3-fluoro-phenoxy)-4-ethyl-phenyl]-N-(2-chloro-phenyl)-acetamide]
melting point: 146.6 to 147.2 °C

Cc1cc(S(N)(=O)=O)ccc1NC(=O)Cc1ccc(C)c(Oc2cc(C#N)cc(C#N)c2)c1 [Compound I-43, 2-[3-(3,5-Dicyano-phenoxy)-4-methyl-phenyl]-N-(2-methyl-4-sulfamoyl-phenyl)-acetamide]
melting point: 228.6 to 230.9 °C

Cc1ccc(CC(=O)Nc2ccc(S(N)(=O)=O)cc2Cl)cc1Oc1cc(C#N)cc(C#N)c1 [Compound I-44, N-(2-Chloro-4-sulfamoyl-phenyl)-2-[3-(3,5-dicyano-phenoxy)-4-methyl-phenyl]-acetamide]
melting point: 209.9 to 211.5 °C

CCc1ccc(CC(=O)Nc2ccc(S(N)(=O)=O)cc2)cc1Oc1cc(Cl)cc(C#N)c1 [Compound I-45, 2-[3-(3-Chloro-5-cyano-phenoxy)-4-ethyl-phenyl]-N-(4-sulfamoyl-phenyl)-acetamide]
melting point: 170.7 to 172.4 °C

CCc1ccc(CC(=O)Nc2ccc(S(N)(=O)=O)cc2C)cc1Oc1cc(Cl)cc(C#N)c1 [Compound I-46, 2-[3-(3-Chloro-5-cyano-phenoxy)-4-ethyl-phenyl]-N-(2-methyl-4-sulfamoyl-phenyl)-acetamide]
melting point: 189.1 to 189.4 °C

CCc1ccc(CC(=O)Nc2ccc(S(N)(=O)=O)cc2Cl)cc1Oc1cc(Cl)cc(C#N)c1 [Compound I-47, 2-[3-(3-Chloro-5-cyano-phenoxy)-4-ethyl-phenyl]-N-(2-chloro-4-sulfamoyl-phenyl)-acetamide]
melting point: 181.1 to 183.9 °C

CCc1ccc(CC(=O)Nc2ccc(S(=O)(=O)NC)cc2)cc1Oc1cc(Cl)cc(C#N)c1 [Compound I-48, 2-[3-(3-Chloro-5-cyano-phenoxy)-4-ethyl-phenyl]-N-(4-methylsulfamoyl-phenyl)-acetamide]
melting point: 149.1 to 151.3 °C

CCc1ccc(CC(=O)Nc2ccc(S(N)(=O)=O)cc2)cc1Oc1cc(C#N)cc(F)c1Cl [Compound I-49, 2-[3-(2-Chloro-5-cyano-3-fluoro-phenoxy)-4-ethyl-phenyl]-N-(4-sulfamoyl-phenyl)-acetamide]
melting point: 167.9 to 170.5 °C

CCc1ccc(CC(=O)Nc2ccc(S(N)(=O)=O)cc2C)cc1Oc1cc(C#N)cc(F)c1Cl [Compound I-50, 2-[3-(2-Chloro-5-cyano-3-fluoro-phenoxy)-4-ethyl-phenyl]-N-(2-methyl-4-sulfamoyl-phenyl)-acetamide]
melting point: 217.6 to 220.4 °C

CCc1ccc(CC(=O)Nc2ccc(S(N)(=O)=O)cc2)cc1Oc1cc(C#N)cc(C#N)c1Cl [Compound I-52, 2-[3-(2-Chloro-3,5-dicyano-phenoxy)-4-ethyl-phenyl]-N-(4-sulfamoyl-phenyl)-acetamide]
melting point: 119.7 to 123.3 °C

CCc1ccc(CC(=O)Nc2ccc(S(N)(=O)=O)cc2C)cc1Oc1cc(C#N)cc(C#N)c1Cl [Compound I-53, 2-[3-(2-Chloro-3,5-dicyano-phenoxy)-4-ethyl-phenyl]-N-(2-methyl-4-sulfamoyl-phenyl)-acetamide]
melting point: 199.4 to 205.3 °C

CCc1ccc(CC(=O)Nc2ccc(S(N)(=O)=O)cc2Cl)cc1Oc1cc(C#N)cc(C#N)c1Cl [Compound I-54, 2-[3-(2-Chloro-3,5-dicyano-phenoxy)-4-ethyl-phenyl]-N-(2-chloro-4-sulfamoyl-phenyl)-acetamide]
melting point: 180.3 to 183.1 °C

Cc1cc(C#N)cc(C)c1Oc1cc(CC(=O)Nc2ccc(S(N)(=O)=O)cc2)ccc1Cl [Compound I-55, 2-[4-Chloro-3-(4-cyano-2,6-dimethyl-phenoxy)-phenyl]-N-(4-sulfamoyl-phenyl)-acetamide]
melting point: 227.3 to 231.4 °C

Cc1cc(S(N)(=O)=O)ccc1NC(=O)Cc1ccc(Cl)c(Oc2c(C)cc(C#N)cc2C)c1 [Compound I-56, 2-[4-Chloro-3-(4-cyano-2,6-dimethyl-phenoxy)-phenyl]-N-(2-methyl-4-sulfamoyl-phenyl)-acetamide]
melting point: 232.1 to 234.6 °C

COc1ccc(CC(=O)Nc2ccc(S(N)(=O)=O)cc2)cc1Oc1cc(Cl)cc(C#N)c1 [Compound I-57, 2-[3-(3-Chloro-5-cyano-phenoxy)-4-methoxy-phenyl]-N-(4-sulfamoyl-phenyl)-acetamide]
melting point: 218.3 to 221.4 °C

CCc1ccc(CC(=O)Nc2ccccc2Cl)cc1Oc1cc(C#N)cc(F)c1Cl [Compound I-59, 2-[3-(2-Chloro-5-cyano-3-fluoro-phenoxy)-4-ethyl-phenyl]-N-(2-chloro-phenyl)-acetamide]
melting point: 142.1 to 142.8 °C

CCc1ccc(CC(=O)Nc2ccccc2Cl)cc1Oc1cc(C#N)cc(C#N)c1Cl [Compound I-60, 2-[3-(2-Chloro-3,5-dicyano-phenoxy)-4-ethyl-phenyl]-N-(2-chloro-phenyl)-acetamide]
melting point: 110 to 111.5 °C

COc1ccc(CC(=O)Nc2ccccc2Cl)cc1Oc1cc(Cl)cc(C#N)c1 [Compound I-61, 2-[3-(3-Chloro-5-cyano-phenoxy)-4-methoxy-phenyl]-N-(2-chloro-phenyl)-acetamide]
melting point: 175.7 to 178.3 °C

COc1ccc(CC(=O)Nc2ccccc2Cl)cc1Oc1cc(C#N)ccc1Cl [Compound I-62, 2-[3-(2-Chloro-5-cyano-phenoxy)-4-methoxy-phenyl]-N-(2-chloro-phenyl)-acetamide]
melting point: 194 to 197.8 °C

COc1ccc(CC(=O)Nc2ccc(S(N)(=O)=O)cc2Cl)cc1Oc1cc(Cl)cc(C#N)c1 [Compound I-64, 2-[3-(3-Chloro-5-cyano-phenoxy)-4-methoxy-phenyl]-N-(2-chloro-4-sulfamoyl-phenyl)-acetamide]
melting point: 186.3 to 189.7 °C

COc1ccc(CC(=O)Nc2ccc(S(N)(=O)=O)cc2)cc1Oc1cc(C#N)ccc1Cl [Compound I-65, 2-[3-(2-Chloro-5-cyano-phenoxy)-4-methoxy-phenyl]-N-(4-sulfamoyl-phenyl)-acetamide]
melting point: 252.3 to 254.3 °C

COc1ccc(CC(=O)Nc2ccc(S(N)(=O)=O)cc2C)cc1Oc1cc(C#N)ccc1Cl [Compound I-66, 2-[3-(2-Chloro-5-cyano-phenoxy)-4-methoxy-phenyl]-N-(2-methyl-4-sulfamoyl-phenyl)-acetamide]
melting point: 232.9 to 236.9 °C

COc1ccc(CC(=O)Nc2ccc(S(N)(=O)=O)cc2Cl)cc1Oc1cc(C#N)ccc1Cl [Compound I-67, 2-[3-(2-Chloro-5-cyano-phenoxy)-4-methoxy-phenyl]-N-(2-chloro-4-sulfamoyl-phenyl)-acetamide]
melting point: 214.6 to 216.4 °C

Cc1cc(C#N)cc(C)c1Oc1cc(CC(=O)Nc2ccccc2Cl)ccc1Cl [Compound I-68, 2-[4-Chloro-3-(4-cyano-2,6-dimethyl-phenoxy)-phenyl]-N-(2-chloro-phenyl)-acetamide]
melting point: 183.9 to 185.1 °C

COc1ccc(CC(=O)Nc2ccc(S(N)(=O)=O)cc2C)cc1Oc1cc(Cl)cc(C#N)c1 [Compound I-73, 2-[3-(3-Chloro-5-cyano-phenoxy)-4-methoxy-phenyl]-N-(2-methyl-4-sulfamoyl-phenyl)-acetamide]
melting point: 222.3 to 224.3 °C

Cc1cc(S(N)(=O)=O)ccc1NC(=O)Cc1ccc(C)c(Oc2cc(Cl)cc(C#N)c2)c1F [Compound I-74, 2-[3-(3-Chloro-5-cyano-phenoxy)-2-fluoro-4-methyl-phenyl]-N-(2-methyl-4-sulfamoyl-phenyl)-acetamide]
melting point: 230 to 232.2 °C

Cc1cc(S(N)(=O)=O)ccc1NC(=O)Cc1ccc(C)c(Oc2cc(C#N)cc(C(F)F)c2)c1F [Compound I-85, 2-[3-(3-Cyano-5-difluoromethyl-phenoxy)-2-fluoro-4-methyl-phenyl]-N-(2-methyl-4-sulfamoyl-phenyl)-acetamide]
melting point: 218 to 220.4 °C

Cc1ccc(CC(=O)Nc2ccccc2Cl)c(F)c1Oc1cc(C#N)cc(C(F)F)c1 [Compound I-86, N-(2-Chloro-phenyl)-2-[3-(3-cyano-5-difluoromethyl-phenoxy)-2-fluoro-4-methyl-phenyl]-acetamide]
melting point: 163.3 to 164.4 °C

N#Cc1cc(Oc2cc(CC(=O)Nc3ccc(S(N)(=O)=O)cc3)ccc2Cl)cc(C(F)(F)F)c1 [Compound I-88, 2-[4-Chloro-3-(3-cyano-5-trifluoromethyl-phenoxy)-phenyl]-N-(4-sulfamoyl-phenyl)-acetamide]
melting point: 219 to 221.4 °C

Cc1cc(S(N)(=O)=O)ccc1NC(=O)Cc1ccc(Cl)c(Oc2cc(C#N)cc(C(F)(F)F)c2)c1 [Compound I-89, 2-[4-Chloro-3-(3-cyano-5-trifluoromethyl-phenoxy)-phenyl]-N-(2-methyl-4-sulfamoyl-phenyl)-acetamide]
melting point: 211.6 to 214.6 °C

N#Cc1cc(Oc2cc(CC(=O)Nc3ccc(S(N)(=O)=O)cc3Cl)ccc2Cl)cc(C(F)(F)F)c1 [Compound I-90, 2-[4-Chloro-3-(3-cyano-5-trifluoromethyl-phenoxy)-phenyl]-N-(2-chloro-4-sulfamoyl-phenyl)-acetamide]
melting point: 198 to 202 °C
